{"source": "patent US6544727B1", "about": "“Methods and devices for the removal of psoralens from blood products” (Cerus Corporation, priority 1995, dated 2003)", "key": {"HIV-1": {"test_system": "HIV-1", "conditions": "1 minute irradiation", "description": "As in the R17 assay, small aliquots of the compounds listed in TABLES 10 and 11, below, at the concentrations listed in the table, were added to stock HIV-1 to a total of 0.5 mL. The stock HIV (10^5−10^7 plaque forming units/mL) was in DMEM15% FBS. […] Controls included HIV-1 stock only, HIV-1 plus UVA only, and HIV-1 plus the highest concentration of each psoralen tested, with no UVA. Post irradiation, all samples were store frozen at −70° C. until assayed for infectivity by a microtiter plaque assay. Aliquots for measurement of residual HIV infectivity in the samples treated with a compound of the present invention were withdrawn and cultured.\nResidual HIV infectivity was assayed using an MT-2 infectivity assay. […] The assay medium was 85% DMEM (with a high glucose concentration) containing 100 μg of streptomycin, 100 U of penicillin, 50 μg of gentamicin, and 1 μg of amphotericin B per mL, 15% FBS and 2 μg of Polybrene (Sigma Chemical Co., St. Louis, Mo.) per mL. Test and control samples from the inactivation procedure were diluted in 50% assay medium and 50% normal human pooled plasma The samples were serially diluted directly in 96-well plates (Corning Glass Works, Corning, N.Y.). The plates were mixed on an oscillatory shaker for 30 seconds and incubated at 37° C. in a 5% CO2 atmosphere for 1 to 18 hours. […] After an additional 1 hour of incubation at 37° C. in 5% CO2, 0.075 mL of assay medium containing 1.6% SeaPlaque agarose (FMC Bioproducts, Rockland, Me.) and prewarmed to 38.5° C. was added to each well. The plates were kept at 37° C. for a few minutes until several plates had accumulated and then centrifuged in plate carriers at 600×g for 20 minutes in a centrifuge precooled to 10° C. In the centrifuge, cell monolayers formed prior to gelling of the agarose layer. The plates were incubated for 5 days at 37° C. in 5% CO2 and stained by the addition of 0.05 mL of 50 μg/mL propidium iodide (Sigma Chemical Co.) in phosphate-buffered saline (pH 7.4) to each well. After 24 to 48 hours, the red fluorescence-stained microplaques were visualized by placing the plates on an 8,000 μW/cm^2304 nm UV light box (Fotodyne, Inc., New Berlin, Wis.). The plaques were counted at a magnification of x20 to x25 through a stereomicroscope."}, "R17 bacteriophage": {"test_system": "R17 bacteriophage", "assay": "R17 bacteriophage inactivation assay, varying compound concentration", "type": "cell-based", "conditions": "for R17 Log Kill: starting titer approx. 7.1 logs; for R17 inactivation efficiency compared with AMT or 8-MOP (in words): varying concentration, Tables 6-9, FIGS. 6-10", "protocol": "An r-17 bacteriophage assay was used in this example to predict pathogen inactivation efficiency and to determine nucleic acid binding of the photoreactive binding compounds of the present invention. In the r-17 assay, the bacteriophage was placed in a solution with each compound tested and was then irradiated. The ability of the phage to subsequently infect bacteria and inhibit their growth was measured. The bacteriophage was selected for its relatively accessible nucleic acid such that the culture growth inhibition would accurately reflect nucleic acid damage by the test compounds. The bacteriophage assay for nucleic acid binding to test compounds offers a safe and inexpensive procedure to identify compounds likely to display efficient pathogen inactivation.\nThe R17 was grown up in Hfr 3000 bacteria, approximate titer 5×10^11. (R17 and Hfr 3000 were obtained from American Tissue Culture Collection (ATCC), Washington, D.C.) The R17 phage stock was added to a solution of 15% fetal bovine serum in Dulbecco's Modified Eagles Medium (DMEM) to a final phage concentration of 10^9/mL. An aliquot (0.5 mL) was transferred to a 1.5 mL snap-top polyethylene tube. An aliquot (0.004-0.040 mL) of the test compound stock solution prepared in water, ethanol or dimethylsulfoxide at 0.80-8.0 mM was added to the tube. Compounds were tested at concentrations between 4 μM and 320 μM. […] The tubes were placed in a light device as described in EXAMPLE 1 and irradiated for between 1 and 10 minutes. Sterile 13 mL dilution tubes were prepared; each test compound required one tube with 0.4 mL of Luria broth (LB) and five tubes containing 0.5 mL of LB broth. To make the dilutions, a 0.100 mL aliquot of the irradiated solution of phage and test compound was added to the first dilution tube of 0.4 mL of media then 0.020 mL of this solution was added to the second tube of 0.5 mL medium (1:25). The second solution was then diluted serially (1:25) into the remaining tubes. To each diluted sample was added 0.050 mL of Hfr 3000 bacteria cultured overnight and 3 mL of molten LB top agar and the mixed materials were poured onto LB broth plates. After the top agar hardened, the plates were incubated at 37° C. overnight. The plaque forming units were then counted the following morning and the titer of the phage remaining after phototreatment was calculated based on the dilution factors.\nThe following controls were run: the “phage only” in which phage was not treated with test compound and not irradiated (listed as “starting titer” in the tables below); the “UV only” in which the phage was irradiated in the absence of test compound; and the “dark” control in which the phage/test compound solution was not irradiated before it was diluted and plated."}, "[1]": {"test_system": "Salmonella tester strain TA1538", "conditions": "TA1538 − S9; 1.5 μg/plate", "protocol": "(§1) In this example the compounds of the present invention are tested for their dark mutagenicity using an Ames assay. The procedures used for the Salmonella mutagenicity test as described in detail by Maron and Ames were followed exactly. Maron, D. M. and B. N. Ames, Mutation Research 113: 173 ( 1983). A brief description for each procedure is given here. The tester strains TA97a, TA98, TA100, TA102, TA1537 and TA1538 were obtained from Dr. Ames. TA97a, TA98, TA1537 and TA1538 are frameshift tester strains. TA100 and TA102 are base-substitution tester strains. Upon receipt each strain was cultured under a variety of conditions to confirm the genotypes specific to the strains.\n(§2) The first tests done with the strains were to determine the range of spontaneous reversion for each of the strains. With each mutagenicity experiment the spontaneous reversion of the tester strains to histidine independence was measured and expressed as the number of spontaneous revertants per plate. This served as the background controls.\n(§3) For all experiments, the pre-incubation procedure was used. In this procedure one vial of each tester strain was thawed and 20 μL of this culture was added to 6 mL of Oxoid Nutrient Broth #2. This solution was allowed to shake for 10 hours at 37° C. In the pre-incubation procedure, 0.1 mL of this overnight culture was added to each of the required number of sterile test tubes. To half of the tubes 0.5 mL of a 10% S-9 solution containing Aroclor 1254 induced rat liver extract (Molecular Toxicology Inc., Annapolis, Md.), and MgCl2, KCl, glucose-6-phosphate, NADP, and sodium phosphate buffer (Sigma, St. Louis, Mo.) were added. To the other half of the tubes 0.5 mL of 0.2M sodium phospate buffer, pH 7.4, was used in place of the S-9 mixture (the—S9samples). Finally 0.1 mL of the test solution containing either 0, 0.1, 0.5, 1, 5, 10, 50, 100, 250, or 500 μg/mL of the test compound was added. The 0.7 mL mixture was vortexed and then pre-incubated while shaking for 20 minutes at 37° C. After shaking, 2 mL of molten top agar supplemented with histidine and biotin were added to the 0.7 mL mixture and immediately poured onto a minimal glucose agar plate (volume of base agar was 20 mL). The top agar was allowed 30 minutes to solidify and then the plates were inverted and incubated for 44 hours at 37° C. After incubation the number of revertant colonies on each plate were counted. […] (“n” represents the number of replicates performed for each data point.)"}, "[2]": {"test_system": "Salmonella tester strain TA100", "conditions": "TA100 − S9; 1.5 μg/plate", "protocol": "as §1, §2, §3"}, "[3]": {"test_system": "Salmonella tester strain TA102", "assay": "Ames test, strain TA102", "conditions": "TA102 − S9; 100 μg/plate", "protocol": "as §1, §2, §3"}, "mouse reticulocytes": {"test_system": "mouse reticulocytes", "conditions": "positive control, 30 mg/kg administered only once, on day three, blood on day 5; 30 mg/kg", "protocol": "Male Balb/c mice were then injected with 0.1 ml of a compound solution via the tail vein. At least 3 mice were injected per dose level. Saline only was used as a negative control. For a positive control, cyclophosphamide (cycloPP) was administered at a dose of 30 mg/kg. In the experimental group, the injections were repeated once per day for four days. In the positive control group, the sample was administered only once, on day three. On day 5, several microliters of blood were withdrawn from each subject and smeared on a glass slide. Cells were fixed in absolute methanol and stored in a slide rack.\nFor analysis, cells were stained with acridine orange and visualized under a fluorescence microscope by counting: (i) the number of reticulocytes per 5000 erythrocytes; and (ii) the number of micronucleated reticulocytes per 1000 reticulocytes. Reticulocytes were distinguished by their red fluorescence due to the presence of RNA. Micronuclei were distinguished by their green fluorescence due to the presence of DNA. The percentage of reticulocytes (%PCE) was then calculated. A decrease in the frequency of […] in the percentage of reticulocytes, is an indication of bone marrow toxicity. The percentage of reticulocytes with micronuclei (%PCE with MN) was also calculated. An increase in %PCE with MN is a measure of clastogenicity.\nAfter initial results were determined, the experiment was repeated using increased dose levels, until: (i) Micronucleus formation was seen; or (ii) Bone marrow toxicity was observed; or (iii) The lethal dose was reached; or (iv) A dose of 5 g/kg was administered."}, "[4]": {"test_system": "Salmonella tester strain TA1537", "assay": "Ames test, strain TA1537", "conditions": "TA1537 − S9; 10 μg/plate", "protocol": "as §1, §2, §3"}, "[5]": {"test_system": "Salmonella tester strain TA98", "assay": "Ames test, strain TA98", "conditions": "TA98 − S9; 10 μg/plate", "protocol": "as §1, §2\nFor all experiments, the pre-incubation procedure was used. In this procedure one vial of each tester strain was thawed and 20 μL of this culture was added to 6 mL of Oxoid Nutrient Broth #2. This solution was allowed to shake for 10 hours at 37° C. In the pre-incubation procedure, 0.1 mL of this overnight culture was added to each of the required number of sterile test tubes. To half of the tubes 0.5 mL of a 10% S-9 solution containing Aroclor 1254 induced rat liver extract (Molecular Toxicology Inc., Annapolis, Md.), and MgCl2, KCl, glucose-6-phosphate, NADP, and sodium phosphate buffer (Sigma, St. Louis, Mo.) were added. To the other half of the tubes 0.5 mL of 0.2M sodium phospate buffer, pH 7.4, was used in place of the S-9 mixture (the—S9samples). […] The 0.7 mL mixture was vortexed and then pre-incubated while shaking for 20 minutes at 37° C. After shaking, 2 mL of molten top agar supplemented with histidine and biotin were added to the 0.7 mL mixture and immediately poured onto a minimal glucose agar plate (volume of base agar was 20 mL). The top agar was allowed 30 minutes to solidify and then the plates were inverted and incubated for 44 hours at 37° C. After incubation the number of revertant colonies on each plate were counted. […] (“n” represents the number of replicates performed for each data point.)"}, "[6]": {"conditions": "16 μM, starting titer approximately 5 logs (Table 10)"}, "[7]": {"conditions": "32 μM, starting titer approximately 5 logs (Table 10)"}, "[8]": {"conditions": "64 μM, starting titer approximately 5 logs (Table 10)"}}, "note": "Like-named read-outs stand apart in the source and are kept apart here."}
{"smiles": "Cc1oc2c(C)c3oc(=O)cc(C)c3cc2c1COCCOCCNCCCCN", "note": "[Compound 8, 4′-(12-amino-8-aza-2,5-dioxa)dodecyl-4,5′,8-trimethylpsoralen]", "values": [{"measurement": "HIV Log Kill", "setting": "HIV-1; [6]", "result": 1.1, "unit": "log"}, {"measurement": "HIV Log Kill", "setting": "HIV-1; [7]", "result": 1.9, "unit": "log"}, {"measurement": "HIV Log Kill", "setting": "HIV-1; [8]", "result": 3.7, "unit": "log"}]}
{"smiles": "Cc1oc2c(C)c3oc(=O)cc(C)c3cc2c1CNCCCN", "note": "[Compound 5, 4′-(5-amino-2-aza)pentyl-4,5′,8-trimethylpsoralen]", "values": [{"measurement": "HIV Log Kill", "setting": "HIV-1; [6]", "result": 0.9, "unit": "log"}, {"measurement": "HIV Log Kill", "setting": "HIV-1; [7]", "result": 1.3, "unit": "log"}, {"measurement": "HIV Log Kill", "setting": "HIV-1; [8]", "result": ">2.6", "unit": "log"}, {"measurement": "R17 Log Kill", "setting": "R17 bacteriophage; 16 μM, 1 minute irradiation = 1.2 J/cm^2 (Table 8)", "result": 5.6, "unit": "log"}, {"measurement": "R17 Log Kill", "setting": "R17 bacteriophage; 32 μM, 1 minute irradiation = 1.2 J/cm^2 (Table 8)", "result": ">6.1", "unit": "log"}, {"measurement": "R17 Log Kill", "setting": "R17 bacteriophage; 64 μM, 1 minute irradiation = 1.2 J/cm^2 (Table 8)", "result": ">6.1", "unit": "log"}, {"measurement": "R17 inactivation efficiency compared with AMT or 8-MOP (in words)", "setting": "R17 bacteriophage", "result": "significantly higher inactivation efficiency than does AMT"}]}
{"smiles": "Cc1oc2c(C)c3oc(=O)cc(C)c3cc2c1COCCOCCN", "note": "[Compound 7, 4′-(7-amino-2,5-oxa)heptyl-4,5′,8-trimethylpsoralen]", "values": [{"measurement": "HIV Log Kill", "setting": "HIV-1; [6]", "result": 0.8, "unit": "log"}, {"measurement": "HIV Log Kill", "setting": "HIV-1; [7]", "result": 2.1, "unit": "log"}, {"measurement": "HIV Log Kill", "setting": "HIV-1; [8]", "result": 3.5, "unit": "log"}, {"measurement": "R17 Log Kill", "setting": "R17 bacteriophage; 16 μM, 1 minute irradiation (Table 9)", "result": ">6", "unit": "log"}, {"measurement": "R17 Log Kill", "setting": "R17 bacteriophage; 32 μM, 1 minute irradiation (Table 9)", "result": ">6", "unit": "log"}, {"measurement": "R17 Log Kill", "setting": "R17 bacteriophage; 64 μM, 1 minute irradiation (Table 9)", "result": ">6", "unit": "log"}]}
{"smiles": "[N-]=[N+]=[N-]", "note": "[Sodium Azide, sodium azide, reference compound]", "values": [{"measurement": "revertant colonies per plate", "setting": "[1]", "result": 965}, {"measurement": "revertant colonies per plate", "setting": "[2]", "result": 965}]}
{"smiles": "OO", "note": "[hydrogen peroxide]", "values": [{"measurement": "revertant colonies per plate", "setting": "[3]", "result": 660}]}
{"smiles": "O=P1(N(CCCl)CCCl)NCCCO1", "note": "(stereo not drawn) [CylcoPP, cyclophosphamide, reference compound]", "values": [{"measurement": "PCE + MN (%)", "setting": "mouse reticulocytes", "result": "2.09 ± 0.17", "unit": "%"}, {"measurement": "PCE/RBC (%)", "setting": "mouse reticulocytes", "result": "0.99 ± 0.33", "unit": "%"}]}
{"smiles": "Nc1c2ccccc2nc2ccccc12", "note": "[9-Amino-acridine, reference compound]", "values": [{"measurement": "revertant colonies per plate", "setting": "[4]", "result": 284}, {"measurement": "revertant colonies per plate", "setting": "[5]", "result": 284}]}
{"smiles": "Cc1cc(=O)oc2c(C)c3oc(CNCCN)c(C)c3cc12", "note": "[Compound 16, 5′-(4-amino-2-aza)butyl-4,4′,8-trimethylpsoralen]", "values": [{"measurement": "R17 inactivation efficiency compared with AMT or 8-MOP (in words)", "setting": "R17 bacteriophage", "result": "significantly higher inactivation efficiency than does AMT"}]}
{"smiles": "Cc1oc2c(C)c3oc(=O)cc(C)c3cc2c1CNCCCOCCCCOCCN", "note": "[Compound 9, 4′-(13-amino-2-aza-6,11-dioxa)tridecyl-4,5′,8-trimethylpsoralen]", "values": [{"measurement": "HIV Log Kill", "setting": "HIV-1; 16 μM, starting titer approximately 5.4 logs (Table 11)", "result": 0.8, "unit": "log"}, {"measurement": "HIV Log Kill", "setting": "HIV-1; 32 μM, starting titer approximately 5.4 logs (Table 11)", "result": 1.4, "unit": "log"}, {"measurement": "HIV Log Kill", "setting": "HIV-1; 64 μM, starting titer approximately 5.4 logs (Table 11)", "result": 2.7, "unit": "log"}]}
